In patent US6841577B2, “Pesticidal activity of plant essential oils and their constituents” (Ecosmart Technologies, Inc., priority 1999, dated 2005):

What was measured:
[1] = tested on: octopamine receptor sites; test: 3H-OA binding to ventral nerve cord / synaptosomal membrane protein; set-up: species or system American cockroach (Periplaneta americana); details: for classification with respect to octopamine receptor sites (OAR): based on the binding data of Tables 1-3; for dpm 3H-OA/500 μg protein: Table 2
Description: Different concentrations of unlabeled octopamine (OA) (20, 30, 40, 50, 60, 100 ng) were tested on the binding activity as a positive control. Test chemicals were dissolved in acetone before the assay. Different concentrations of the test chemicals were added directly to the protein preparation from ventral nerve cord. The same amount of solvent (1 μl 0.1%) were added to the control samples. All assays with test chemicals were run in the presence and absence of 50 ng OA. All chemicals were added to the protein extract 20 min prior the addition of radio labeled ^3H-OA(100,000 cpm/sample). After 30 min at 24° C. of the addition of ^3H-OA, the reaction was stopped by the addition of ice-cold Tris buffer, and the samples were filtered through GF/C membrane using water vacuum. After two washes each with 5 ml Tris buffer, the membrane was removed, air dried and the radioactivity was counted in 4 ml liquid scintillation solution. The specific binding was calculated as the difference between the values in the presence and absence of unlabeled OA. All data are calculated as the mean±standard deviation of 5 assays.
Additional tests were conducted on radio labeled octopamine using other purified naturally occurring materials as given in Tables 2 and 3.

American cockroach [2] = test: Lethal effect of injected test chemicals; assay type: in vivo
Description: Further studies were conducted to determine the LD 50 of purified naturally occurring plant essential oils and/or their constituents. […] Ten roaches per dose were used. Another group of ten roaches received the same volume of vehicle only (0.5 μl) and used as a control group. Mortality was recorded 24, 48, and 72 hours after exposure.

[3] = tested on: heart of American cockroach (octopamine receptors); test: Heartbeat after application to thoracic segment; assay type: in vivo; details: mean ±SD of three roaches; for Heart beat/30 sec 30 min after treatment: 300 μg applied to thoracic segment; for Heart beat/30 sec before treatment: baseline of the same roaches
Description: To further establish the effect of the purified naturally occurring plant essential oils and/or their constituents on the American cockroach, a 300 μg amount of the chemical was applied to the thoracic segment of an intact and alive American cockroach. The heart beats/30 seconds was measured. The heart of the cockroach is known to have a high concentration of octopamine receptors and the heart beat is considered an important measurement to indicate the effect of the applied chemicals to the octopamine receptors.

American cockroach [4] = test: Cross walk jar test on pre-treated surface; assay type: in vivo
Description: In the test, a known amount of the test material was dissolved in a known volume of acetone and applied to small jars and all inner bottom surfaces were covered. The bottom surface of each jar is approximately 250 cm^2. One hour after the acetone had completely evaporated, five American cockroaches were introduced to each jar. Control jars were treated exactly as above but with the known amount of acetone only.
The results of the “cross walk” jar tests are in Table 8 in which the “4-blend” was dispersed as an aerosol and a dust in the jar.
In this test, the acetone solution of the test material was placed in the jar and the roach inserted into the jar after the acetone had evaporated.
Mortality was measured 24 hours after exposure.
The “4-blend” and the individual constituents of the “4-blend” were tested using 10 cockroaches for each “cross walk” treatment. In addition, pyrethrins were tested separately and mixed with the various components.
A concentration of 100 mg/jar was used for each individual alone. In the co-treatment experiment without pyrethrins, 20 mg/jar for each chemical was used. In the cotreatment experiment with pyrethrins, 20 mg/jar for the naturally occurring plant material was used. Pyrethrins was used at 2 mg/jar. […] It was noted above that the mortality is dependent upon concentration. […] Some synergism is found between pyrethrins and either α-terpineol or benzyl alcohol.

[5] = 500 ng/ml, Table 3, solvent control 1385 ± 101
[6] = 1000 ng/ml, Table 3, solvent control 1915 ± 110
[7] = 500 μg/roach injected into thoracic and abdominal segments, 24 hr., dead/10
[8] = 500 μg/roach injected, 48 hr., dead/10
[9] = 500 μg/roach injected, 72 hr., dead/10, control 1/10
[10] = 500 ng/ml, solvent control 1101 ± 120
[11] = 1000 ng/ml, solvent control 930 ± 89
[12] = 300 ng test chemical, Table 1, solvent control 1280 ± 259
[13] = 500 ng test chemical, Table 1, solvent control 1280 ± 259
[14] = 700 ng test chemical, Table 1, solvent control 1280 ± 259
[15] = 1000 ng test chemical, Table 1, solvent control 1280 ± 259
[16] = 1500 ng test chemical, Table 1, solvent control 1280 ± 259

C=C(C)[C@H]1CC=C(C)CC1 [R-limonene]
cpm 3H-OA/500 μg protein [1, 5]: 1436 ± 133 cpm 3H-OA/500 μg protein
classification with respect to octopamine receptor sites (OAR) [1]: Non-OAR Specific Toxicants

C/C=C/c1ccc(OC)cc1 [Trans-Anethole]
agonist/antagonist note to 3H-OA binding ([1]; 500 ng/ml): antagonist
cpm 3H-OA/500 μg protein [1, 5]: 1104 ± 110 cpm 3H-OA/500 μg protein
cpm 3H-OA/500 μg protein [1, 6]: 970 ± 87 cpm 3H-OA/500 μg protein
classification with respect to octopamine receptor sites (OAR) [1]: moderate OAR antagonists

COc1cc(C=O)ccc1O [Vanillin]
agonist/antagonist note to 3H-OA binding ([1]; 500 ng/ml): antagonist
cpm 3H-OA/500 μg protein [1, 5]: 1030 ± 83 cpm 3H-OA/500 μg protein
cpm 3H-OA/500 μg protein [1, 6]: 700 ± 55 cpm 3H-OA/500 μg protein

CC(C)=CCCC(C)CC=O (centres unmarked) [citronellal]
Mortality (American cockroach [2]; [7]): 0/10
Mortality (American cockroach [2]; [8]): 0/10
Mortality (American cockroach [2]; [9]): 0/10

C=C(C)[C@H]1CC=C(C)CC1 [d-limonene]
activity/binding at octopamine receptor sites, in words [1]: no activity against octopamine receptor sites
dpm 3H-OA/500 μg protein [1, 10]: 1194 ± 101 dpm 3H-OA/500 μg protein
dpm 3H-OA/500 μg protein [1, 11]: 866 ± 71 dpm 3H-OA/500 μg protein
Mortality (American cockroach [2]; [7]): 0/10
Mortality (American cockroach [2]; [8]): 0/10
Mortality (American cockroach [2]; [9]): 0/10

Cc1ccc(C(C)C)cc1 [p-cymene]
agonist/antagonist note to 3H-OA binding ([1]; 500 ng/ml): antagonist
cpm 3H-OA/500 μg protein [1, 5]: 1142 ± 074 cpm 3H-OA/500 μg protein
cpm 3H-OA/500 μg protein [1, 6]: 804 ± 057 cpm 3H-OA/500 μg protein
classification with respect to octopamine receptor sites (OAR) [1]: moderate OAR antagonists

OCCc1ccccc1 [phenethyl alcohol]
Mortality (American cockroach [2]; [7]): 0/10
Mortality (American cockroach [2]; [8]): 0/10
Mortality (American cockroach [2]; [9]): 0/10
Heart beat/30 sec 30 min after treatment [3]: 29 ± 2 beat/30 sec
Heart beat/30 sec before treatment [3]: 47 ± 2 beat/30 sec
mortality at 100 mg (American cockroach [4]; Periplaneta americana, 24 h): 0%
mortality at 100 mg (American cockroach [4]; Periplaneta americana, 48 h): 0%
mortality at 100 mg (American cockroach [4]; Periplaneta americana, 72 h): 0%

CC(C)=C1CC[C@@H](C)CC1=O [pulegone]
cpm 3H-OA/500 μg protein [1, 12]: 936 ± 33 cpm 3H-OA/500 μg protein
cpm 3H-OA/500 μg protein [1, 13]: 778 ± 22 cpm 3H-OA/500 μg protein
cpm 3H-OA/500 μg protein [1, 14]: 662 ± 51 cpm 3H-OA/500 μg protein
cpm 3H-OA/500 μg protein [1, 15]: 435 ± 22 cpm 3H-OA/500 μg protein
cpm 3H-OA/500 μg protein [1, 16]: 217 ± 18 cpm 3H-OA/500 μg protein
classification with respect to octopamine receptor sites (OAR) [1]: high OAR antagonists
Mortality (American cockroach [2]; 50 μg injected through the end of the abdominal segment, 48 hr. after treatment): 20%
Mortality 24 hr after treatment (American cockroach [2]; 300 μg, dead/10): 3/10
Mortality 24 hr after treatment (American cockroach [2]; 400 μg, dead/10): 5/10
Mortality (American cockroach [2]; [7]): 6/10
Mortality (American cockroach [2]; [8]): 6/10
Mortality (American cockroach [2]; [9]): 7/10
Mortality 24 hr after treatment (American cockroach [2]; 500 μg, dead/10): 5/10
Mortality 24 hr after treatment (American cockroach [2]; 600 μg, dead/10): 8/10
Mortality 24 hr after treatment (American cockroach [2]; 700 μg, dead/10): 10/10
mortality at 10 mg (American cockroach [4]; Periplaneta americana, 24 h): 100%
pesticidal activity against cockroaches, in words (American cockroach [4]; in vivo): high pesticidal activity

CC1=CC[C@H](C(C)C)C=C1 [α-phellandrene]
agonist/antagonist note to 3H-OA binding ([1]; 500 ng/ml): agonist
cpm 3H-OA/500 μg protein [1, 5]: 2353 ± 343 cpm 3H-OA/500 μg protein
classification with respect to octopamine receptor sites (OAR) [1]: OAR Agonists

CC1=CCC(C(C)(C)O)CC1 (stereo not drawn) [α-terpineol]
cpm 3H-OA/500 μg protein [1, 12]: 1213 ± 110 cpm 3H-OA/500 μg protein
cpm 3H-OA/500 μg protein [1, 13]: 1031 ± 24 cpm 3H-OA/500 μg protein
cpm 3H-OA/500 μg protein [1, 14]: 910 ± 88 cpm 3H-OA/500 μg protein
cpm 3H-OA/500 μg protein [1, 15]: 700 ± 88 cpm 3H-OA/500 μg protein
cpm 3H-OA/500 μg protein [1, 16]: 565 ± 47 cpm 3H-OA/500 μg protein
classification with respect to octopamine receptor sites (OAR) [1]: moderate OAR antagonists
Heart beat/30 sec 30 min after treatment [3]: 32 ± 2 beat/30 sec
Heart beat/30 sec before treatment [3]: 58 ± 4 beat/30 sec
mortality at 100 mg (American cockroach [4]; Periplaneta americana, 24 h): 20%
mortality at 100 mg (American cockroach [4]; Periplaneta americana, 48 h): 30%
mortality at 100 mg (American cockroach [4]; Periplaneta americana, 72 h): 60%

Citronellal 80
agonist/antagonist note to 3H-OA binding ([1]; 500 ng/ml): antagonist
dpm 3H-OA/500 μg protein [1, 10]: 725 ± 95 dpm 3H-OA/500 μg protein
dpm 3H-OA/500 μg protein [1, 11]: 526 ± 33 dpm 3H-OA/500 μg protein
classification with respect to octopamine receptor sites (OAR) [1]: moderate OAR antagonists
